Converted amounts (≈) assume the structure as drawn. The source made the active and inactive calls. The calls are words filed in the database; no cut-off is given here.
Key:
[1] = tested on: Bacillus cereus; test: Antibacterial activity against Bacillus cereus assessed as inhibition of bacterial growth incubated for 24 hrs by agar well diffusion method; type: functional
[2] = tested on: Pseudomonas aeruginosa; test: Antibacterial activity against Pseudomonas aeruginosa assessed as inhibition of bacterial growth incubated for 24 hrs by agar well diffusion method; type: functional
[3] = tested on: Candida albicans; test: Antifungal activity against Candida albicans assessed as inhibition of fungal growth incubated for 24 hrs by agar well diffusion method; type: functional
[4] = tested on: Aspergillus niger; test: Antifungal activity against Aspergillus niger assessed as inhibition of fungal growth incubated for 24 hrs by agar well diffusion method; type: functional
[5] = tested on: Salmonella enterica subsp. enterica serovar Abony; test: Antibacterial activity against Salmonella abony assessed as inhibition of bacterial growth incubated for 24 hrs by agar well diffusion method; type: functional
[6] = tested on: Klebsiella aerogenes; test: Antibacterial activity against Enterobacter aerogenes assessed as inhibition of bacterial growth incubated for 24 hrs by agar well diffusion method; type: functional
[7] = tested on: Escherichia coli; test: Antibacterial activity against Escherichia coli assessed as inhibition of bacterial growth incubated for 24 hrs by agar well diffusion method; type: functional
[8] = tested on: Staphylococcus aureus; test: Antibacterial activity against Staphylococcus aureus assessed as inhibition of bacterial growth incubated for 24 hrs by agar well diffusion method; type: functional
[9] = biological target: T1, Enoyl-[acyl-carrier-protein] reductase [NADH] (Mycobacterium tuberculosis) (UniProt P9WGR1); test: Inhibition of InhA in Mycobacterium tuberculosis H37Rv assessed antitubercular activity by measuring inhibition of bacterial growth incubated for 7 days by MABA assay; settings: time 7.0 day
T1 sequence (whole entry): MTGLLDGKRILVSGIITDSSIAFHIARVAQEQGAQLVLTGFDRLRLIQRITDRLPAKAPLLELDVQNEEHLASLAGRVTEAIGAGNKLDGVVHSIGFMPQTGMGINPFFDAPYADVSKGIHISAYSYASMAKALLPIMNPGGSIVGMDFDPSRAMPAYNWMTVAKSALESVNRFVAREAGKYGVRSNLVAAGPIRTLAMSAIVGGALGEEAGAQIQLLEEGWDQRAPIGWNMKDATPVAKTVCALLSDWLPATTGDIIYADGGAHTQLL

[10] = tested on: Bacillus subtilis; test: Antibacterial activity against Bacillus subtilis assessed as inhibition of bacterial growth incubated for 24 hrs by agar well diffusion method; type: functional
[11] = tested on: Salmonella typhi; test: Antibacterial activity against Salmonella typhi assessed as inhibition of bacterial growth incubated for 24 hrs by agar well diffusion method; type: functional; settings: Salmonella enterica subsp. enterica serovar Typhi
[12] = tested on: Saccharomyces cerevisiae; test: Antifungal activity against Saccharomyces cerevisiae assessed as inhibition of fungal growth incubated for 24 hrs by agar well diffusion method; type: functional
[13] = tested on: Shigella boydii; test: Antibacterial activity against Shigella boydii assessed as inhibition of bacterial growth incubated for 24 hrs by agar well diffusion method; type: functional

Row | SMILES | diameter of the inhibition zone (DIZ) [1] | diameter of the inhibition zone (DIZ) [2] | diameter of the inhibition zone (DIZ) [3] | diameter of the inhibition zone (DIZ) [4] | diameter of the inhibition zone (DIZ) [5] | diameter of the inhibition zone (DIZ) [6] | diameter of the inhibition zone (DIZ) [7] | diameter of the inhibition zone (DIZ) [8] | MIC [9] | diameter of the inhibition zone (DIZ) [10] | diameter of the inhibition zone (DIZ) [11] | diameter of the inhibition zone (DIZ) [12] | diameter of the inhibition zone (DIZ) [13]
1 | Cc1cc([N+](=O)[O-])ccc1NC(=O)Cn1cc(COc2ccc3c(c2)CCC3)nn1 | inactive | inactive | inactive | inactive | inactive | inactive | inactive | inactive | > 25 µM | inactive | inactive | inactive | 
2 | O=C(Cn1cc(COc2ccc3c(c2)CCC3)nn1)Nc1ccc(F)cc1 | inactive | inactive | 13 mm | inactive | inactive | inactive | inactive | 13 mm | > 25 µM | inactive | inactive | inactive | 11 mm
3 | O=C(O)c1cn(C2CC2)c2cc(N3CCNCC3)c(F)cc2c1=O |  |  |  |  |  |  |  |  | 1.56 µM (≈ 0.517 µg/mL) |  |  |  | 
4 | Cc1ccc(NC(=O)Cn2cc(COc3ccc4c(c3)CCC4)nn2)c(C)c1 | inactive | inactive | inactive | inactive | inactive | inactive | inactive | inactive | > 25 µM | inactive | inactive | inactive | 13 mm
5 | O=C(Cn1cc(COc2ccc3c(c2)CCC3)nn1)Nc1ccc(Cl)cc1 | inactive | inactive | 15 mm | inactive | inactive | inactive | inactive | 8 mm | > 25 µM | inactive | inactive | 10 mm | inactive
6 | COc1cccc(NC(=O)Cn2cc(COc3ccc4c(c3)CCC4)nn2)c1 | inactive | inactive | inactive | inactive | inactive | inactive | inactive | inactive | > 25 µM | inactive | inactive | inactive | 15 mm
7 | Cc1ccc([N+](=O)[O-])cc1NC(=O)Cn1cc(COc2ccc3c(c2)CCC3)nn1 | inactive | 9 mm | inactive | inactive | inactive | 12 mm | inactive | inactive | > 25 µM | inactive | inactive | inactive | 9 mm
8 | CCc1ccc(-n2cc(COc3ccc4c(c3)CCC4)nn2)cc1 | inactive | inactive | 13 mm | inactive | inactive | inactive | inactive | 7 mm | > 25 µM | inactive | inactive |  | inactive

— ChEMBL document CHEMBL4699525, “Design and synthesis of new indanol-1,2,3-triazole derivatives as potent antitubercular and antimicrobial agents” (Bioorg Med Chem Lett, 2020)
